Measured values: ChEMBL document CHEMBL6153110, “Peptide Double-Stapling and Arginine N-Glycosylation Triggered the Development of Therapeutic Antimicrobial Peptides Capable of Killing Drug-Resistant Bacteria in Mice” (J Med Chem, 2025)
Converted amounts (≈) assume the structure as drawn. Starred links: 1 amine or outer side, 2 acyl side, 3 side chain; linkers in the order of their positions; H or OH if unused. Positions of bridges follow the written chain, without caps; N, C: chain ends. Non-standard residues stand in square brackets, D forms with d. Residues, ends and D or L forms follow the SMILES beside them. X1 = N=C(NCCC[C@H](N[*:1])C(=O)[*:2])N[C@@H]1O[C@H](CO)[C@@H](O[C@H]2O[C@H](CO)[C@@H](O[C@H]3O[C@H](CO)[C@@H](O)[C@H](O)[C@H]3O)[C@H](O)[C@H]2O)[C@H](O)[C@H]1O; Arg(Nω-βLac) = N=C(NCCC[C@H](N)C(=O)O)N[C@@H]1O[C@H](CO)[C@@H](O[C@@H]2O[C@H](CO)[C@H](O)[C@H](O)[C@H]2O)[C@H](O)[C@H]1O; X2 = CC(=O)N[C@@H]1[C@@H](O)[C@H](O)[C@@H](CO)O[C@H]1NC(=N)NCCC[C@H](N[*:1])C(=O)[*:2]; S5 = C=CCCC[C@](C)(N)C(=O)O

Columns and labels:
[1] = test system: Streptococcus pneumoniae; experiment: Antimicrobial activity against Streptococcus pneumoniae ATCC 49619 assessed as growth inhibition measured after 8 hrs incubation by standard broth dilution assay; format: functional
[2] = test system: Klebsiella pneumoniae; experiment: Antimicrobial activity against Klebsiella pneumoniae ATCC 13883 assessed as growth inhibition measured after 8 hrs incubation by standard broth dilution assay; format: functional
[3] = Hemolytic activity in BALB/c mouse red blood cells assessed as hemolysis incubated for 1 hrs; format: toxicity, cell-based, Erythrocyte; settings: read-out: HD50
[4] = test system: Staphylococcus aureus; experiment: Antimicrobial activity against methicillin-resistant Staphylococcus aureus ATCC 43300 assessed as growth inhibition measured after 8 hrs incubation by standard broth dilution assay; format: functional
[5] = test system: Pseudomonas aeruginosa; experiment: Antimicrobial activity against Pseudomonas aeruginosa ATCC 27853 assessed as growth inhibition measured after 8 hrs incubation by standard broth dilution assay; format: functional

SMILES	MIC [1]	MIC [2]	HC50 at 1 h [3]	MIC [4]	MIC [5]
CC(=O)N[C@@H](CCCCN)C(=O)N[C@@H](CCCCN)C(=O)N[C@@H](CCCNC(=N)N)C(=O)N[C@@]1(C)CCC/C=C\CCC[C@@](C)(C(=O)N[C@@H](Cc2ccccc2)C(=O)N[C@@H](CCCCN)C(=O)N[C@@H](CC(C)C)C(=O)N[C@@H](CC(C)C)C(=O)N[C@@H](CCCCN)C(=O)N[C@@]2(C)CCC/C=C\CCC[C@@](C)(C(=O)N[C@@H](CC(C)C)C(=O)N[C@@H](CCCCN)C(=O)N[C@@H](CCCCN)C(=O)N3CCC[C@H]3C(=O)N[C@H](C(=O)N[C@@H](CCCNC(=N)N)C(N)=O)C(C)C)NC(=O)[C@H](CCCNC(=N)N)NC(=O)[C@H](Cc3c[nH]c4ccccc34)NC(=O)[C@H](Cc3ccc(O)cc3)NC2=O)NC(=O)[C@H](CCCNC(=N)N)NC(=O)[C@H](CCCCN)NC(=O)[C@H](Cc2c[nH]c3ccccc23)NC1=O (Ac-KKR[S5]WKR[S5]FKLLK[S5]YWR[S5]LKKPVR-NH2; staple (Z) 4-8, 14-18)	4.7 µg/mL (≈ 1.42 µM)	4.9 µg/mL (≈ 1.48 µM)	10.5 µg/mL	4.9 µg/mL (≈ 1.48 µM)	5 µg/mL (≈ 1.52 µM)
CC(=O)N[C@@H]1[C@@H](O)[C@H](O)[C@@H](CO)O[C@H]1NC(=N)NCCC[C@H](NC(=O)[C@@H](NC(=O)[C@@H]1CCCN1C(=O)[C@H](CCCCN)NC(=O)[C@H](CCCCN)NC(=O)[C@H](CC(C)C)NC(=O)[C@H](CCC(N)=O)NC(=O)[C@H](CCCNC(=N)N)NC(=O)[C@H](Cc1c[nH]c2ccccc12)NC(=O)[C@H](Cc1ccc(O)cc1)NC(=O)[C@H](CCCNC(=N)N)NC(=O)[C@H](CCCCN)NC(=O)[C@H](CC(C)C)NC(=O)[C@H](CC(C)C)NC(=O)[C@H](CCCCN)NC(=O)[C@H](Cc1ccccc1)NC(=O)[C@@H](NC(=O)[C@H](CCCNC(=N)N)NC(=O)[C@H](CCCCN)NC(=O)[C@H](Cc1c[nH]c2ccccc12)NC(=O)[C@@H](NC(=O)[C@H](CCCNC(=N)N)NC(=O)[C@H](CCCCN)NC(=O)[C@H](CC(C)C)NC(C)=O)C(C)C)C(C)C)C(C)C)C(N)=O (Ac-LKRVWKRVFKLLKRYWRQLKKPV[X2]-NH2)	4.7 µg/mL (≈ 1.35 µM)	38 µg/mL (≈ 10.9 µM)	35.8 µg/mL	4.9 µg/mL (≈ 1.41 µM)	5 µg/mL (≈ 1.44 µM)
CC(=O)N[C@@H](CCCCN)C(=O)N[C@@H](CCCCN)C(=O)N[C@@H](CCCNC(=N)N)C(=O)N[C@H](C(=O)N[C@@H](CCCCN)C(=O)N[C@@H](CCCCN)C(=O)N[C@@H](CCCNC(=N)N)C(=O)N[C@@]1(C)CCC/C=C\CCC[C@@](C)(C(=O)N[C@@H](CCCCN)C(=O)N[C@@]2(C)CCC/C=C\CCC[C@@](C)(C(=O)N[C@@H](CC(C)C)C(=O)N[C@@H](CCCCN)C(=O)N[C@@H](CCCCN)C(=O)N3CCC[C@H]3C(=O)N[C@H](C(=O)N[C@@H](CCCNC(=N)N)C(N)=O)C(C)C)NC(=O)[C@H](CCCNC(=N)N)NC(=O)[C@H](Cc3c[nH]c4ccccc34)NC(=O)[C@H](Cc3ccc(O)cc3)NC2=O)NC(=O)[C@H](CC(C)C)NC(=O)[C@H](CCCCN)NC(=O)[C@H](Cc2ccccc2)NC1=O)C(C)C (Ac-KKRVKKR[S5]FKL[S5]K[S5]YWR[S5]LKKPVR-NH2; staple (Z) 8-12, 14-18)	2.4 µg/mL (≈ 0.743 µM)	2.5 µg/mL (≈ 0.774 µM)	56.3 µg/mL	2.5 µg/mL (≈ 0.774 µM)	2.6 µg/mL (≈ 0.805 µM)
CC(=O)N[C@@H](CC(C)C)C(=O)N[C@@H](CCCCN)C(=O)N[C@@H](CCCNC(=N)N)C(=O)N[C@H](C(=O)N[C@@H](Cc1c[nH]c2ccccc12)C(=O)N[C@@H](CCCCN)C(=O)N[C@@H](CCCNC(=N)N)C(=O)N[C@H](C(=O)N[C@@H](CCCCN)C(=O)N[C@@H](CCCCN)C(=O)N[C@@H](CC(C)C)C(=O)N[C@@H](CC(C)C)C(=O)N[C@@H](CCCCN)C(=O)N[C@@]1(C)CCC/C=C\CCC[C@@](C)(C(=O)N[C@@H](CC(C)C)C(=O)N[C@@H](CCCCN)C(=O)N[C@@H](CCCCN)C(=O)N2CCC[C@H]2C(=O)N[C@H](C(=O)N[C@@H](CCCNC(=N)N)C(N)=O)C(C)C)NC(=O)[C@H](CCCNC(=N)N)NC(=O)[C@H](Cc2c[nH]c3ccccc23)NC(=O)[C@H](Cc2ccc(O)cc2)NC1=O)C(C)C)C(C)C (Ac-LKRVWKRVKKLLK[S5]YWR[S5]LKKPVR-NH2; staple (Z) 14-18)	2.4 µg/mL (≈ 0.747 µM)	19.2 µg/mL (≈ 5.97 µM)	38 µg/mL	4.9 µg/mL (≈ 1.52 µM)	5 µg/mL (≈ 1.56 µM)
CC(=O)N[C@@H](CCCCN)C(=O)N[C@@H](CCCCN)C(=O)N[C@@H](CCCNC(=N)N)C(=O)N[C@H](C(=O)N[C@@H](Cc1c[nH]c2ccccc12)C(=O)N[C@@H](CCCCN)C(=O)N[C@@H](CCCNC(=N)N)C(=O)N[C@@]1(C)CCC/C=C\CCC[C@@](C)(C(=O)N[C@@H](CCCCN)C(=O)N[C@@]2(C)CCC/C=C\CCC[C@@](C)(C(=O)N[C@@H](CC(C)C)C(=O)N[C@@H](CCCCN)C(=O)N[C@@H](CCCCN)C(=O)N3CCC[C@H]3C(=O)N[C@H](C(=O)N[C@@H](CCCNC(=N)N)C(N)=O)C(C)C)NC(=O)[C@H](CCCNC(=N)N)NC(=O)[C@H](Cc3c[nH]c4ccccc34)NC(=O)[C@H](Cc3ccc(O)cc3)NC2=O)NC(=O)[C@H](CC(C)C)NC(=O)[C@H](CCCCN)NC(=O)[C@H](Cc2ccccc2)NC1=O)C(C)C (Ac-KKRVWKR[S5]FKL[S5]K[S5]YWR[S5]LKKPVR-NH2; staple (Z) 8-12, 14-18)	2.4 µg/mL (≈ 0.73 µM)	4.6 µg/mL (≈ 1.4 µM)	15.3 µg/mL	4.9 µg/mL (≈ 1.49 µM)	5 µg/mL (≈ 1.52 µM)
CC(=O)N[C@@H](CC(C)C)C(=O)N[C@@H](CCCCN)C(=O)N[C@@H](CCCNC(=N)N)C(=O)N[C@H](C(=O)N[C@@H](Cc1c[nH]c2ccccc12)C(=O)N[C@@H](CCCCN)C(=O)N[C@@H](CCCNC(=N)N)C(=O)N[C@H](C(=O)N[C@@H](Cc1ccccc1)C(=O)N[C@@H](CCCCN)C(=O)N[C@@H](CCCCN)C(=O)N[C@@H](CC(C)C)C(=O)N[C@@H](CCCCN)C(=O)N[C@@]1(C)CCC/C=C\CCC[C@@](C)(C(=O)N[C@@H](CC(C)C)C(=O)N[C@@H](CCCCN)C(=O)N[C@@H](CCCCN)C(=O)N2CCC[C@H]2C(=O)N[C@H](C(=O)N[C@@H](CCCNC(=N)N)C(N)=O)C(C)C)NC(=O)[C@H](CCCNC(=N)N)NC(=O)[C@H](Cc2c[nH]c3ccccc23)NC(=O)[C@H](Cc2ccc(O)cc2)NC1=O)C(C)C)C(C)C (Ac-LKRVWKRVFKKLK[S5]YWR[S5]LKKPVR-NH2; staple (Z) 14-18)	4.7 µg/mL (≈ 1.45 µM)	38 µg/mL (≈ 11.7 µM)	35.2 µg/mL	10.1 µg/mL (≈ 3.11 µM)	5 µg/mL (≈ 1.54 µM)
CC(=O)N[C@@H](CC(C)C)C(=O)N[C@@H](CCCCN)C(=O)N[C@@H](CCCNC(=N)N)C(=O)N[C@H](C(=O)N[C@@H](Cc1c[nH]c2ccccc12)C(=O)N[C@@H](CCCCN)C(=O)N[C@@H](CCCNC(=N)N)C(=O)N[C@H](C(=O)N[C@@H](Cc1ccccc1)C(=O)N[C@@H](CCCCN)C(=O)N[C@@H](CC(C)C)C(=O)N[C@@H](CC(C)C)C(=O)N[C@@H](CCCCN)C(=O)N[C@@]1(C)CCC/C=C\CCC[C@@](C)(C(=O)N[C@@H](CC(C)C)C(=O)N[C@@H](CCCCN)C(=O)N[C@@H](CCCCN)C(=O)N2CCC[C@H]2C(=O)N[C@H](C(=O)N[C@@H](CCCNC(=N)N)C(N)=O)C(C)C)NC(=O)[C@H](CCCNC(=N)N)NC(=O)[C@H](Cc2c[nH]c3ccccc23)NC(=O)[C@H](CCCCN)NC1=O)C(C)C)C(C)C (Ac-LKRVWKRVFKLLK[S5]KWR[S5]LKKPVR-NH2; staple (Z) 14-18)	2.4 µg/mL (≈ 0.75 µM)	38 µg/mL (≈ 11.9 µM)	53.6 µg/mL	10.1 µg/mL (≈ 3.16 µM)	5 µg/mL (≈ 1.56 µM)
CC(=O)N[C@@H](CC(C)C)C(=O)N[C@@H](CCCCN)C(=O)N[C@@H](CCCNC(=N)N[C@@H]1O[C@H](CO)[C@@H](O[C@H]2O[C@H](CO)[C@@H](O[C@H]3O[C@H](CO)[C@@H](O)[C@H](O)[C@H]3O)[C@H](O)[C@H]2O)[C@H](O)[C@H]1O)C(=O)N[C@H](C(=O)N[C@@H](Cc1c[nH]c2ccccc12)C(=O)N[C@@H](CCCCN)C(=O)N[C@@H](CCCNC(=N)N)C(=O)N[C@H](C(=O)N[C@@H](Cc1ccccc1)C(=O)N[C@@H](CCCCN)C(=O)N[C@@H](CC(C)C)C(=O)N[C@@H](CC(C)C)C(=O)N[C@@H](CCCCN)C(=O)N[C@@H](CCCNC(=N)N)C(=O)N[C@@H](Cc1ccc(O)cc1)C(=O)N[C@@H](Cc1c[nH]c2ccccc12)C(=O)N[C@@H](CCCNC(=N)N)C(=O)N[C@@H](CCC(N)=O)C(=O)N[C@@H](CC(C)C)C(=O)N[C@@H](CCCCN)C(=O)N[C@@H](CCCCN)C(=O)N1CCC[C@H]1C(=O)N[C@H](C(=O)N[C@@H](CCCNC(=N)N)C(N)=O)C(C)C)C(C)C)C(C)C (Ac-LK[X1]VWKRVFKLLKRYWRQLKKPVR-NH2)	16.9 µg/mL (≈ 4.5 µM)	38 µg/mL (≈ 10.1 µM)	58.1 µg/mL	2.5 µg/mL (≈ 0.666 µM)	5 µg/mL (≈ 1.33 µM)
CC(=O)N[C@@H](CC(C)C)C(=O)N[C@@H](CCCCN)C(=O)N[C@@H](CCCNC(=N)N[C@@H]1O[C@H](CO)[C@@H](O[C@@H]2O[C@H](CO)[C@H](O)[C@H](O)[C@H]2O)[C@H](O)[C@H]1O)C(=O)N[C@H](C(=O)N[C@@H](Cc1c[nH]c2ccccc12)C(=O)N[C@@H](CCCCN)C(=O)N[C@@H](CCCNC(=N)N)C(=O)N[C@H](C(=O)N[C@@H](Cc1ccccc1)C(=O)N[C@@H](CCCCN)C(=O)N[C@@H](CC(C)C)C(=O)N[C@@H](CC(C)C)C(=O)N[C@@H](CCCCN)C(=O)N[C@@H](CCCNC(=N)N)C(=O)N[C@@H](Cc1ccc(O)cc1)C(=O)N[C@@H](Cc1c[nH]c2ccccc12)C(=O)N[C@@H](CCCNC(=N)N)C(=O)N[C@@H](CCC(N)=O)C(=O)N[C@@H](CC(C)C)C(=O)N[C@@H](CCCCN)C(=O)N[C@@H](CCCCN)C(=O)N1CCC[C@H]1C(=O)N[C@H](C(=O)N[C@@H](CCCNC(=N)N)C(N)=O)C(C)C)C(C)C)C(C)C (Ac-LK[Arg(Nω-βLac)]VWKRVFKLLKRYWRQLKKPVR-NH2)	9.9 µg/mL (≈ 2.76 µM)	38 µg/mL (≈ 10.6 µM)	33.8 µg/mL	4.9 µg/mL (≈ 1.36 µM)	5 µg/mL (≈ 1.39 µM)
